Assay results taken from patent US20260000642A1 (Tay Therapeutics Limited, priority 2022, published 2026).
Several values for one entry are separate records, joined by “and”; a condition that tells them apart may be missing. Identical values can stand only once.

What was measured:
[1] = test system: UUO renal fibrosis in rats; experiment: Unilateral Urethral Obstruction (UUO) rat renal fibrosis model: body weight, clinical observations, nephropathy scores; type: in vivo; design: Glomerulosclerosis clinical score / Interstitial nephritis clinical score / Collagen fiber deposition clinical score / Nephropathy clinical score: scale not given here; conditions: for Body weight: individual animals ID 1-8; for Clinical Observation: — = no finding, cells wrap: soft/stool, Anal/dirty
Text: Unilateral Urethral Obstruction (UUO) is a complex model of renal fibrosis (RF) disease. RF is a common outcome in progressive chronic kidney diseases, characterized by excessive formation of internal scar tissue. Surgical obstruction of urine flow can be used to trigger this disease in rodents. The UUO model allows for evaluation of potential drugs as treatment for RF.
Experimental groups for the study are outlined in Table 10. […] Briefly, animals were anesthetized using a Zoletil/Xylazine mixture (20:1, v:v) for a final dose of 25 mg/kg. The operation area was disinfected with 75% alcohol before shaving. Rats in UUO group were exposed left ureter through a small incision on the left side of the abdomen and ligated with 3-0 silk at two locations about 0.5 cm below the renal hilum. The ureters of sham rats in Group 1 were manipulated but not ligated.
Starting on Day 0, animals in group 2 were administered daily doses of the vehicle for 14 days.
Clinical signs for all animals were monitored and recorded daily. Blind clinical nephropathy scores were conducted for all animals in the study. Glomerulosclerosis, interstitial nephritis, collagen fiber deposition, nephropathy were each assessed for all experimental rats, and a total clinical score was determined for each rat. The scoring system represented the degree or percentage of lesions in the whole kidney. Clinical score assessments were performed on Day 14.
Starting on Day 0, animals in group 2 were administered daily doses of the vehicle for 14 days. […] A design of the UUO study is depicted in FIG. 9B.
Blind clinical nephropathy scores were conducted for all animals in the study. Glomerulosclerosis, interstitial nephritis, collagen fiber deposition, and nephropathy were each assessed for all experimental rats, and a total clinical score was determined for each rat. The scoring system represented the degree or percentage of lesions in the whole kidney. Clinical score assessments were performed on Day 14.

[2] = Plasma stability assay, rat plasma; type: in vitro ADME; conditions: 37° C., Method 1 (5 μM)
Procedure, shortened: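 Compound incubated in plasma at 37° C, either at 5 μM (0.5% DMSO) sampled at 0, 15, 30, 60, 120 min (Method 1) or at 10 μM (2% DMSO) sampled at 0, 15, 30, 60, 90, 120 min (Method 2). Quenched with cold acetonitrile plus internal standard; LC-MS/MS, % remaining relative to 0 min.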

[3] = Plasma stability assay, human plasma; type: in vitro ADME; conditions: 37° C., Method 1 (5 μM)
[4] = test system: IL-17A; experiment: Human PBMC assay, IL-17A by ELISA (CD2/CD3/CD28 bead stimulation); type: cell-based; conditions: 72 hours
Protocol: (§1) CD2, CD3, and CD28 antibody-coated beads from the T-cell activation/expansion kit (Miltenyi Biotec) were added to the PBMC at a bead-to-cell ratio of 1:2. The mixture of PBMCs and beads were seeded into the wells of the round-bottom 96-well plate at a concentration of 2×10^5 cells/well in a total volume of 200 μL. The cells were cultured for 72 hours at 37° C. and 5% CO2 and then supernatants were collected and IL-17A and IL-22 levels were measured by ELISA. […] The final compound concentration ranged from 30,000 nM to 0.005 nM and the final DMSO concentration per well was 0.3%. PBMCs were seeded at approximately […] in the wells of the 96-well tissue culture plate in a total volume of 190 μL. The plate was incubated for 1 hour at 37° C. and 5% CO2. […] The cells were then cultured for 24 hours at 37° C. and 5% CO2. The supernatant was collected and CXCL10 levels were measured by ELISA.

[5] = test system: IL-22; experiment: Human PBMC assay, IL-22 by ELISA (CD2/CD3/CD28 bead stimulation); type: cell-based; conditions: 72 hours
Protocol: as §1

[6] = UUO rats, individual animals No. 1-8

CNC(=O)c1[nH]c(C(=O)NC2CCC2)cc1O[C@@H](C)c1ccccc1 [Example 101, N^5-cyclobutyl-N^2-methyl-3-(1-phenylethoxy)-1H-pyrrole-2,5-dicarboxamide]
clinical symptoms associated with UUO (overall conclusion) ([1]; 30 mg/kg): ameliorates clinical symptoms associated with UUO | Body weight ([1]; UUO rats, 30 mg/kg, Day 5, 30 mg/kg): 310 g | Body weight ([1]; UUO rats, 30 mg/kg, Day 7, 30 mg/kg): 270 g | Body weight ([1]; UUO rats, 30 mg/kg, Day 8, 30 mg/kg): 260 g and 290 g | Body weight ([1]; UUO rats, 30 mg/kg, Day 10, 30 mg/kg): 330 g (2×) and 320 g | Body weight ([1]; UUO rats, 30 mg/kg, Day 11, 30 mg/kg): 300 g and 330 g | Body weight ([1]; UUO rats, 30 mg/kg, Day 12, 30 mg/kg): 260 g and 310 g and 300 g and 340 g | Collagen fiber deposition clinical score [1, 6]: 2 (2×) and 1 (6×) | Glomerulosclerosis clinical score [1, 6]: 0 | Interstitial nephritis clinical score [1, 6]: 3 (5×) and 2 (3×) | Nephropathy clinical score [1, 6]: 2 (2×) and 1 (6×) | Clinical Observation ([1]; UUO rats, individual animals No. 1-8, Day 3): diarrhea | Clinical Observation ([1]; UUO rats, individual animals No. 1-8, Day 5): Anal | Clinical Observation ([1]; UUO rats, individual animals No. 1-8, Day 6): Anal | Clinical Observation ([1]; UUO rats, individual animals No. 1-8, Day 7): Anal | Clinical Observation ([1]; UUO rats, individual animals No. 1-8, Day 8): soft | Clinical Observation ([1]; UUO rats, individual animals No. 1-8, Day 9): soft | Clinical Observation ([1]; UUO rats, individual animals No. 1-8, Day 10): soft | Clinical Observation ([1]; UUO rats, individual animals No. 1-8, Day 13): soft | Clinical Observation ([1]; UUO rats, individual animals No. 1-8, Day 14): Anal (2×) and soft | interstitial nephritis in representative pathology staining ([1]; UUO rats, 30 mg/kg (FIG. 13B)): mild interstitial nephritis | animals exhibiting diarrhea ([1]; UUO rats, 30 mg/kg, 14 days): One animal | animals exhibiting dirty anuses ([1]; UUO rats, 30 mg/kg, 14 days): Three animals | animals exhibiting soft stools ([1]; UUO rats, 30 mg/kg, 14 days): Four UUO rats | body weight over the 14-day study ([1]; UUO rats, 30 mg/kg, BID at 0 and 8 hours, 14 days (group 3)): slight weight loss over the first seven days of the study, and then gained weight over the remaining seven days | collagen fiber deposition score relative to UUO + vehicle ([1]; UUO rats, 30 mg/kg, Day 14): reduced | interstitial nephritis score relative to UUO + vehicle ([1]; UUO rats, 30 mg/kg, Day 14): reduced | nephropathy score relative to UUO + vehicle ([1]; UUO rats, 30 mg/kg, Day 14): reduced | total clinical scores relative to UUO + vehicle ([1]; UUO rats, 30 mg/kg, Day 14): reduced | Plasma Stability (% remaining at 120 minutes) Rat [2]: 61% | Plasma Stability (% remaining at 120 minutes) Human [3]: 93% | IC50 for IL-17A relative to GSK620 [4]: substantially lower 1050 | IC50 for IL-22 relative to GSK620 [5]: substantially lower 1050
